Reference: ChEMBL document CHEMBL1201862, “PubChem BioAssay data set” (2004)
Active and inactive are the calls of the source.

Assays:
[1] = target: T1, Trace amine-associated receptor 1 (Homo sapiens, UniProt Q96RJ0); assay: Fluorescence-based cell-based high throughput dose response assay to identify antagonists of the human trace amine associated receptor 1 (TAAR1).; assay type: functional
T1 sequence (Q96RJ0 whole entry): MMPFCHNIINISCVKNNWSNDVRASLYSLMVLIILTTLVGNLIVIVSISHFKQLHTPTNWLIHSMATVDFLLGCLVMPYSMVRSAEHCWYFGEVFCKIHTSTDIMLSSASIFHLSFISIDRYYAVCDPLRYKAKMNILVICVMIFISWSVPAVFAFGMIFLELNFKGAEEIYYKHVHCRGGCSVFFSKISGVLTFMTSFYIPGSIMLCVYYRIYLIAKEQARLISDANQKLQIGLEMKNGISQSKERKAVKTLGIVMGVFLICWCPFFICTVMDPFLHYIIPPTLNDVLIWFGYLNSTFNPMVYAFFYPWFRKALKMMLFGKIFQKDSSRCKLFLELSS

[2] = target: T1, Trace amine-associated receptor 1; assay: Counterscreen for antagonists of the human trace amine associated receptor 1 (hTAAR1): Fluorescence-based cell-based high throughput dose response assay to identify TAAR1 Agonists.; assay type: functional
[3] = Counterscreen for […] of the human trace amine associated receptor 1 (TAAR1): Fluorescence-based cell-based high throughput dose response assay to identify nonselective Ga16 agonists.; assay type: functional
[4] = Counterscreen for antagonists of the human trace amine associated receptor 1 (hTAAR1): Fluorescence-based cell-based high throughput dose response assay to identify nonselective Ga16 antagonists.; assay type: functional
[5] = human group III sPLA2 inhibitors, dose response, biochemical, QFRET, IC50 (AID 743457);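 further: green fluorescence rise as the enzyme cleaves BODIPY PC-A2 in liposomes; potency for inhibition of the enzyme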
[6] = intracellular Trypanosoma cruzi inhibitors in host cells – cell-based, plate reader, cherry-pick samples, set 3, dose response (AID 651818); assay type: functional;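 further: compounds incubated with infected cells for about four days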
[7] = NIH/3T3 fibroblast cytotoxicity, dose response, cytotoxicity control for T. cruzi growth inhibitor project, cell-based, cherry-pick samples, set 2 (AID 651817); assay type: functional; details: NIH3T3
A549 = assay: A549 cell toxicity, dose response, cytotoxicity control, plate reader, cherry-pick samples (AID 687028); assay type: functional, cell-based; details: Homo sapiens
[8] = HEK293T cytotoxicity, dose response, cytotoxicity control for miR-122 modulator project, cell-based, inhibitor set, cherry-pick, set 2 (AID 720697); assay type: functional
[9] = cytotoxicity in HeLa cells, dose response, cytotoxicity control, cell-based, 24 h, dry powder, set 2 (AID 651774); assay type: functional
[10] = CFTR ΔF508 corrector activity in bronchial cells, dose response, human bronchial epithelial cells, plate reader, cherry-pick, two tests (AID 743267); assay type: functional, cell-based
[11] = target: Endoplasmic reticulum aminopeptidase 1 (Homo sapiens, UniProt Q9NZ08); assay: ERAP1 aminopeptidase inhibitors, dose response, biochemical, cherry-pick, set 2, plate reader (AID 743314)
Chain of Endoplasmic reticulum aminopeptidase 1 (Q9NZ08 whole entry): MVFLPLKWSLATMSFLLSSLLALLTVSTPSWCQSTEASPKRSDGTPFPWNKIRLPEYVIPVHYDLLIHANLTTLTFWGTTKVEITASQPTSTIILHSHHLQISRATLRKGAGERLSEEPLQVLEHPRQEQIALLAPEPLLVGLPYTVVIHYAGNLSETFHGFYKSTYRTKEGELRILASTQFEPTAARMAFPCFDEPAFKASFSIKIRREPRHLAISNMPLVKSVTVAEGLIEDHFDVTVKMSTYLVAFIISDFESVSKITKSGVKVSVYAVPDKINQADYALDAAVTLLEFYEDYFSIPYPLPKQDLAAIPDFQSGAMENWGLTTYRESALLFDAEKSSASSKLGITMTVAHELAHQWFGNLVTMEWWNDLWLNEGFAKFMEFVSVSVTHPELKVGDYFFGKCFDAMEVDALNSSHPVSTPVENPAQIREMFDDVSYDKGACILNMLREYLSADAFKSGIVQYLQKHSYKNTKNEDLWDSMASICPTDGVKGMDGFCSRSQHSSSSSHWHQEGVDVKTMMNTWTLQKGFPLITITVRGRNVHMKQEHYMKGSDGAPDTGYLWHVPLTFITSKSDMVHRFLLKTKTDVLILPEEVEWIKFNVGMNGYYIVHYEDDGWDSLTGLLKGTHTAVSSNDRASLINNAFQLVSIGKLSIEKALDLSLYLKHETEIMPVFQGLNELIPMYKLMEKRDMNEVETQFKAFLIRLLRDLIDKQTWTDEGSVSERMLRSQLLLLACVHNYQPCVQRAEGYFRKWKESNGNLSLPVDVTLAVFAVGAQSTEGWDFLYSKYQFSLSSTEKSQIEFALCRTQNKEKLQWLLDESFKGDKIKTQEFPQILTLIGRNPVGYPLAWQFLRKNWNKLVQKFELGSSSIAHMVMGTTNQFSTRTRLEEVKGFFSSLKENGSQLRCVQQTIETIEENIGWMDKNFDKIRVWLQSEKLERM

Streptokinase A = target: T2, Streptokinase A (Streptococcus pyogenes serotype M1, UniProt P10520); assay: S. pyogenes streptokinase expression inhibitors, potency, dose response, plasminogen activation absorbance, OD405 (AID 1914); assay type: functional, Streptococcus pyogenes M1 GAS;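 further: secreted streptokinase activity via plasminogen activation per viability signal from cell pellet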
T2 sequence (P10520 whole entry): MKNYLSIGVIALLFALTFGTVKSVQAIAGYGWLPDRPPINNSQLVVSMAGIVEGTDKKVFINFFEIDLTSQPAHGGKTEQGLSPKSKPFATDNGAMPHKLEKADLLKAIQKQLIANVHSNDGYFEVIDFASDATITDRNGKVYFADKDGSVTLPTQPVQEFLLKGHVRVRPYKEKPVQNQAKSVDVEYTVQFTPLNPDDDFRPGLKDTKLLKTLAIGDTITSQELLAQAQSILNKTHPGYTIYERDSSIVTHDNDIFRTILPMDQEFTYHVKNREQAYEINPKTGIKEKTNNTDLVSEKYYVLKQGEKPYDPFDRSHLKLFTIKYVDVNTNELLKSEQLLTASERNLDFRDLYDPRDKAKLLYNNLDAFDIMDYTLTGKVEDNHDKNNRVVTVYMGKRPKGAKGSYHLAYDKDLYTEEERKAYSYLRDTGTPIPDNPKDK

[12] = target: Fructose-bisphosphate aldolase (Mycobacterium tuberculosis, UniProt P9WQA3); assay: Fluorescence-based biochemical high throughput dose response assay for inhibitors of the fructose-bisphosphate aldolase (FBA) of M. tuberculosis.; assay type: functional
Chain of Fructose-bisphosphate aldolase (P9WQA3 whole entry): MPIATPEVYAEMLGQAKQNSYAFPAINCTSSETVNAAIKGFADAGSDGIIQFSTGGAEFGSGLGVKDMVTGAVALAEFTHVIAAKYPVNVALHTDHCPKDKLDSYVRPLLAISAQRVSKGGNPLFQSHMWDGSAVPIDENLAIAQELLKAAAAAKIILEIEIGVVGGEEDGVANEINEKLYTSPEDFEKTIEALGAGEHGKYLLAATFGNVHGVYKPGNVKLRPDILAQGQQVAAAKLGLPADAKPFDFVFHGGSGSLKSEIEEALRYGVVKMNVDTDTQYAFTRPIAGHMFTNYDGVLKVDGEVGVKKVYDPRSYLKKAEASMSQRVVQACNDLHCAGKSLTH

[13] = test system: Streptococcus sp. 'group A'; assay: growth inhibition of control SK(-) GAS strain, dose response, counter-screen for streptokinase expression inhibitor project, luminescence, kanamycin, BacTiterGlo, confirmation (AID 1900); assay type: functional, organism-based
[14] = target: Voltage-gated inwardly rectifying potassium channel KCNH2 (Homo sapiens, UniProt Q12809); assay: hERG protection from proarrhythmic block, potency, dose response, cell-based, thallium flux (AID 2121); assay type: ADME
Chain of Voltage-gated inwardly rectifying potassium channel KCNH2 (Q12809 whole entry): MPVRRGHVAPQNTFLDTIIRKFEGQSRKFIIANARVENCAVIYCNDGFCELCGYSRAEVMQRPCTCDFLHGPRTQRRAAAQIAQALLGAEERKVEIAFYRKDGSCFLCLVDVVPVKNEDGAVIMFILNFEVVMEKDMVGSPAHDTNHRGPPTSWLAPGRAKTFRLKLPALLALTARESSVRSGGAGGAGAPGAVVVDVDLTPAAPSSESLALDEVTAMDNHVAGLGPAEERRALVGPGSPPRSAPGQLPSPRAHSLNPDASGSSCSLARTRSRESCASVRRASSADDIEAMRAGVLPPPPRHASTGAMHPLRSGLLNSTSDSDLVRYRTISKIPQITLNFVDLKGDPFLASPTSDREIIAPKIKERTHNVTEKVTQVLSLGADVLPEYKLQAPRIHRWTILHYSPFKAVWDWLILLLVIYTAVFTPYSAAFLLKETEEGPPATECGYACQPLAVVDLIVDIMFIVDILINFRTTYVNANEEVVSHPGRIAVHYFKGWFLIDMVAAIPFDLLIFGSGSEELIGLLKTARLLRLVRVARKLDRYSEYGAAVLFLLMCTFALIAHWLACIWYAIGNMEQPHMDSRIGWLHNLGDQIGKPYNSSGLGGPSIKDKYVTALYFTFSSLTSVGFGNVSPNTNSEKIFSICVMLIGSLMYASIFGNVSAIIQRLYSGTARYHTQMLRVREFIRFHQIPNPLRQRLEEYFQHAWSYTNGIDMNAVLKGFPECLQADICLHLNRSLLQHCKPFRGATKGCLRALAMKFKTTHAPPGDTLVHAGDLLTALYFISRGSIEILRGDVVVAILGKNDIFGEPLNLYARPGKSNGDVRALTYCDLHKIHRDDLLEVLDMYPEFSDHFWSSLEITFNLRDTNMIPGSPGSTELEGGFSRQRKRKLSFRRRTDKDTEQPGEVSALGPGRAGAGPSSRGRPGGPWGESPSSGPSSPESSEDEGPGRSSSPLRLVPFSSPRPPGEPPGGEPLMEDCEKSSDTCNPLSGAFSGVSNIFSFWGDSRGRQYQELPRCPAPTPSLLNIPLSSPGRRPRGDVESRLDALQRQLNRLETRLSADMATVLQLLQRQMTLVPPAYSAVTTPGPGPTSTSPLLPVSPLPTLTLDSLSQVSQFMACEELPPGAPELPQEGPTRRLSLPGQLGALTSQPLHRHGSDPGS

Streptococcus = assay: Group A Streptococcus viability loss, dose response, counter-screen for streptokinase expression inhibitor project, luminescence, BacTiterGlo (AID 1915); assay type: functional, organism-based; details: read-out: EC50;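 further: potency for reduction of bacterial viability or growth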

O=[N+]([O-])c1ccc(-c2c(-c3ccccc3)ncc3cc(F)ccc23)cc1
IC50 [1]: 4.77 µM (active) | EC50 [2]: > 29.9 µM (inactive) | EC50 [3]: > 29.9 µM (inactive) | IC50 [4]: > 29.9 µM (inactive)

CCCCn1c(S)nnc1C12CC3CC(CC(C3)C1)C2
IC50 [5]: > 122 µM (inactive)

Cc1ccc(S(=O)(=O)Nc2ccc3c(c2)CC(=O)N([C@H](C)CO)C[C@@H](C)[C@@H](CN(C)S(=O)(=O)c2ccc(Cl)cc2)O3)cc1
AC50 [6]: 1.96 µM (active) | AC50 [7]: 33.1 µM (active)

Cc1ccc(NC(=O)c2cc(-c3cc(Cl)ccc3C)[nH]n2)cc1NS(C)(=O)=O
AC50 (A549): 23.8 µM (active)

CC(=O)N1[C@H](CN(C(=O)c2ccc(F)cc2)C(C)C)[C@H](c2ccccc2)[C@@H]1CO
AC50 [8]: 10.5 µM (active)

CCc1ccc(C(=O)Nc2nnnn2CC)cc1
AC50 [9]: > 70 µM (inactive)

COc1cccc(S(=O)(=O)N2C[C@@H]3N[C@H](C2)[C@@H]3c2ccc(-c3cccc(C)c3)cc2)c1
AC50 [10]: 16 µM (active)

CN1c2ccc(-c3ccc(C#N)cc3)cc2[C@@H]2[C@@H](CCN2C(=O)CC2CC2)[C@@H]1CO
AC50 [11]: 19.8 µM (active)

Sc1nc(-c2ccccc2)cn1/N=C/c1cccc2ccccc12
EC50 (Streptokinase A): > 150 µM (not active) | IC50 [12]: > 9.99 µM (inactive) | EC50 [13]: 89.1 µM (active) | EC50 [14]: 0.7 µM (active) | EC50 (Streptococcus): > 150 µM (not active)
